Measurements from PMC8351955, “Targeting Mycobacterium tuberculosis response to environmental cues for the development of effective antitubercular drugs” (PLoS Biology, 2021).
Converted amounts (≈) assume the structure as drawn. “And” between values parts separate entries of the source, which are not always exact repeats. Identical values can stand only once. Like-named read-outs stand apart in the source and are kept apart here.

Assays:
[1] = tested on: CDC1551(rv2390c′::GFP) reporter Mtb strain; details: for Normalized % induction: Fig. 2C, DMSO = 100
[2] = tested on: macrophage phagosomal [Cl−] in BMDMs; test: Phagosomal maturation assay, BAC/AF594 beads (Cl− readout); format: cell-based, mouse
Procedure: Carboxyfluorescein (pH readout), DQ-BSA/Alexa Fluor 594 (AF594) (proteolysis readout), and BAC/AF594 (Cl^− readout) beads were generated essentially as previously described, except that 10,10′-Bis[3-carboxylpropyl]-9,9′-biacridinium dinitrate di-NHS ester (BAC-SE) was purchased from emp Biotech LLC. BMDMs were isolated from C57BL/6J mice (The Jackson Laboratory) and maintained as described above. […] Assay buffer consisted of PBS (pH 7.2), supplemented with 5% FBS, 5 mM dextrose, 1 mM CaCl2, 2.7 mM KCl, and 0.5 mM MgCl2 in the case of assays with the carboxyfluorescein or DQ-BSA/AF594 beads. For assays with the BAC/AF594 beads, assay buffer consisted of PBS (pH 7.2), supplemented with 5% FBS, 5 mM dextrose, 1 mM calcium acetate, 1.35 mM K2SO4, and 0.5 mM MgSO4 [9]. Sensor beads at approximately 2 to 5 beads/macrophage in appropriate assay buffer were finally added, with data acquisition on a Biotek Synergy H1 microplate reader with bottom read signal detection started within 2 to 3 minutes of bead addition. Excitation/emission wavelengths were 450 nm/520 nm and 490 nm/520 nm for carboxyfluorescein, 490 nm/520 nm for DQ-BSA, 365 nm/505 nm for BAC, and 590 nm/617 nm for AF594. Each experiment was run with a total of 3 to 5 replicate wells/condition, with temperature maintained at 37°C throughout the assay. Wells were read every 2 minutes for 2 hours for the carboxyfluorescein bead assays, every 2 minoutes for 4 hours for the DQ-BSA/AF594 bead assays, and every 1 minute for 2 hours for the BAC/AF594 bead assays. Analyses of the results were performed as previously described.

[3] = Kinetic aqueous solubility; format: physicochemical; details: pH 7.4 phosphate buffered saline; read-out: kinetic aqueous solubility (S)
Procedure: (§1) Assays examining mouse and human liver microsomal stability, kinetic aqueous solubility, mouse and human plasma protein binding and stability, and human cytochrome P450 inhibition characteristics of the compounds were run by BioDuro (San Diego, CA), using standard protocols as previously described [37]. hERG inhibition assays were also performed by BioDuro.

CYP1A2 = molecular target: T1, CYP1A2 (Homo sapiens, UniProt P05177); test: Human cytochrome P450 inhibition, 1A2; format: in vitro ADME; details: read-out: % inhibition of CYP 1A2
T1 sequence (P05177 1-516): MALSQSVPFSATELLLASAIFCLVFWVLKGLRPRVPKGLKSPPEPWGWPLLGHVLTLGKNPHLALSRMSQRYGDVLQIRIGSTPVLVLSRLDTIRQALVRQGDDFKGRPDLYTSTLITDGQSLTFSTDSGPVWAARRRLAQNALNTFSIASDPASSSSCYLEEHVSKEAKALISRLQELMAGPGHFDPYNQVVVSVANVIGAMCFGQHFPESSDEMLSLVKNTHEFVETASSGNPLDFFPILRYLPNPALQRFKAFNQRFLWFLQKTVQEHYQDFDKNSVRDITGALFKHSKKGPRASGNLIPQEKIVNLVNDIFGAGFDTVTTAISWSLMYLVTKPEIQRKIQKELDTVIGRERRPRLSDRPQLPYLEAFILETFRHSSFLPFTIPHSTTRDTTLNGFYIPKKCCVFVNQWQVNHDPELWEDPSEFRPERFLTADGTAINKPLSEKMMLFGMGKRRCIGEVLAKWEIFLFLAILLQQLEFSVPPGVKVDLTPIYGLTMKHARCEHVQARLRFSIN
Procedure: as §1

CCSc1ncc(CN2CCN(c3nc4ccccc4o3)CC2)cn1 [C6, 2-(4-((2-(ethylthio)pyrimidin-5-yl)methyl)piperazin-1-yl)benzo[d]oxazole]
Normalized % induction ([1]; average of 3 replicates): 141.019%
Normalized % induction ([1]; individual replicates): 121.516% and 141.974% and 159.566%
Ability to increase rv2390c′::GFP reporter signal in high [Cl−] ([1]; pH 7): increased rv2390c′::GFP reporter signal
Effect on increase in [Cl−] during macrophage phagosomal maturation ([2]; 10 μM, uninfected BMDMs): no significant effect
AF594/BAC fluorescence, Average ([2]; Time 0 minutes): 0.6122
AF594/BAC fluorescence, replicates ([2]; Time 0 minutes): 0.5839 and 0.6162 and 0.6235 and 0.6146 and 0.6227
AF594/BAC fluorescence, Average ([2]; Time 1 minutes): 0.5459
AF594/BAC fluorescence, replicates ([2]; Time 1 minutes): 0.5421 and 0.5573 (2×) and 0.546 and 0.5266
AF594/BAC fluorescence, Average ([2]; Time 2 minutes): 0.5408
AF594/BAC fluorescence, replicates ([2]; Time 2 minutes): 0.5319 and 0.5419 and 0.5358 and 0.5431 and 0.5513
AF594/BAC fluorescence, Average ([2]; Time 3 minutes): 0.5344
AF594/BAC fluorescence, replicates ([2]; Time 3 minutes): 0.5344 and 0.5364 and 0.543 and 0.5118 and 0.5462
AF594/BAC fluorescence, Average ([2]; Time 4 minutes): 0.5424
AF594/BAC fluorescence, replicates ([2]; Time 4 minutes): 0.5625 and 0.5432 and 0.5412 and 0.5272 and 0.538
AF594/BAC fluorescence, Average ([2]; Time 5 minutes): 0.5329
AF594/BAC fluorescence, replicates ([2]; Time 5 minutes): 0.545 and 0.5366 and 0.532 and 0.5179 and 0.5328
AF594/BAC fluorescence, Average ([2]; Time 7 minutes): 0.5364
AF594/BAC fluorescence, replicates ([2]; Time 7 minutes): 0.548 and 0.5294 and 0.5467 and 0.5183 and 0.5395
AF594/BAC fluorescence, Average ([2]; Time 9 minutes): 0.5382
AF594/BAC fluorescence, replicates ([2]; Time 9 minutes): 0.5413 and 0.5472 and 0.5302 and 0.5353 and 0.5369
AF594/BAC fluorescence, Average ([2]; Time 11 minutes): 0.548
AF594/BAC fluorescence, replicates ([2]; Time 11 minutes): 0.555 and 0.5414 and 0.5741 and 0.5202 and 0.5492
AF594/BAC fluorescence, Average ([2]; Time 13 minutes): 0.5691
AF594/BAC fluorescence, replicates ([2]; Time 13 minutes): 0.5666 and 0.5688 and 0.5877 and 0.5543 and 0.5682
AF594/BAC fluorescence, Average ([2]; Time 15 minutes): 0.5821
AF594/BAC fluorescence, replicates ([2]; Time 15 minutes): 0.5799 and 0.5786 and 0.5955 and 0.5676 and 0.5889
AF594/BAC fluorescence, Average ([2]; Time 17 minutes): 0.5935
AF594/BAC fluorescence, replicates ([2]; Time 17 minutes): 0.5853 and 0.6046 and 0.6099 and 0.5629 and 0.6045
AF594/BAC fluorescence, Average ([2]; Time 19 minutes): 0.603
AF594/BAC fluorescence, replicates ([2]; Time 19 minutes): 0.5752 and 0.6161 and 0.6348 and 0.5964
AF594/BAC fluorescence, Average ([2]; Time 21 minutes): 0.6193
AF594/BAC fluorescence, Average ([2]; Time 23 minutes): 0.618
AF594/BAC fluorescence, Average ([2]; Time 25 minutes): 0.6229
AF594/BAC fluorescence, Average ([2]; Time 27 minutes): 0.6239
AF594/BAC fluorescence, Average ([2]; Time 29 minutes): 0.6453
AF594/BAC fluorescence, Average ([2]; Time 31 minutes): 0.6313
AF594/BAC fluorescence, Average ([2]; Time 33 minutes): 0.6482
AF594/BAC fluorescence, Average ([2]; Time 35 minutes): 0.6392
AF594/BAC fluorescence, Average ([2]; Time 37 minutes): 0.6481
AF594/BAC fluorescence, Average ([2]; Time 39 minutes): 0.6418
AF594/BAC fluorescence, Average ([2]; Time 41 minutes): 0.6532
AF594/BAC fluorescence, Average ([2]; Time 43 minutes): 0.6524
AF594/BAC fluorescence, Average ([2]; Time 45 minutes): 0.6458
AF594/BAC fluorescence, Average ([2]; Time 46 minutes): 0.6438
AF594/BAC fluorescence, Average ([2]; Time 47 minutes): 0.6518
AF594/BAC fluorescence, Average ([2]; Time 48 minutes): 0.6423
AF594/BAC fluorescence, Average ([2]; Time 49 minutes): 0.6502
AF594/BAC fluorescence, Average ([2]; Time 50 minutes): 0.6427
AF594/BAC fluorescence, Average ([2]; Time 51 minutes): 0.6412
AF594/BAC fluorescence, Average ([2]; Time 52 minutes): 0.6437
AF594/BAC fluorescence, Average ([2]; Time 53 minutes): 0.6415
AF594/BAC fluorescence, Average ([2]; Time 54 minutes): 0.6535
AF594/BAC fluorescence, Average ([2]; Time 55 minutes): 0.646
AF594/BAC fluorescence, Average ([2]; Time 56 minutes): 0.6496
AF594/BAC fluorescence, Average ([2]; Time 57 minutes): 0.6559
AF594/BAC fluorescence, Average ([2]; Time 58 minutes): 0.6523
AF594/BAC fluorescence, Average ([2]; Time 59 minutes): 0.6473
AF594/BAC fluorescence, Average ([2]; Time 60 minutes): 0.6412
AF594/BAC fluorescence, Average ([2]; Time 61 minutes): 0.6401
AF594/BAC fluorescence, Average ([2]; Time 62 minutes): 0.6424
AF594/BAC fluorescence, Average ([2]; Time 63 minutes): 0.6429
AF594/BAC fluorescence, Average ([2]; Time 64 minutes): 0.6497
AF594/BAC fluorescence, Average ([2]; Time 65 minutes): 0.6542
AF594/BAC fluorescence, Average ([2]; Time 66 minutes): 0.6415
AF594/BAC fluorescence, Average ([2]; Time 67 minutes): 0.656
AF594/BAC fluorescence, Average ([2]; time 6 minutes): 0.5344
AF594/BAC fluorescence, replicates ([2]; time 6 minutes): 0.55 and 0.5263 and 0.5408 and 0.5119 and 0.5432
AF594/BAC fluorescence, Average ([2]; time 8 minutes): 0.5381
AF594/BAC fluorescence, replicates ([2]; time 8 minutes): 0.5319 and 0.5466 and 0.5386 and 0.538 and 0.5353
AF594/BAC fluorescence, Average ([2]; time 10 minutes): 0.5471
AF594/BAC fluorescence, replicates ([2]; time 10 minutes): 0.5453 and 0.5491 and 0.5758 and 0.5298 and 0.5354
AF594/BAC fluorescence, Average ([2]; time 12 minutes): 0.5563
AF594/BAC fluorescence, replicates ([2]; time 12 minutes): 0.5501 and 0.57 and 0.5742 and 0.5198 and 0.5673
AF594/BAC fluorescence, Average ([2]; time 14 minutes): 0.5706
AF594/BAC fluorescence, replicates ([2]; time 14 minutes): 0.5628 and 0.5864 and 0.5841 and 0.542 and 0.5776
AF594/BAC fluorescence, Average ([2]; time 16 minutes): 0.5854
AF594/BAC fluorescence, replicates ([2]; time 16 minutes): 0.5806 and 0.5704 and 0.6264 and 0.5665 and 0.5832
AF594/BAC fluorescence, Average ([2]; time 18 minutes): 0.5961
AF594/BAC fluorescence, replicates ([2]; time 18 minutes): 0.5808 and 0.5961 and 0.6277 and 0.5767 and 0.5992
AF594/BAC fluorescence, Average ([2]; time 20 minutes): 0.6147
AF594/BAC fluorescence, replicates ([2]; time 20 minutes): 0.6043
AF594/BAC fluorescence, Average ([2]; time 22 minutes): 0.6194
AF594/BAC fluorescence, Average ([2]; time 24 minutes): 0.6332
AF594/BAC fluorescence, Average ([2]; time 26 minutes): 0.631
AF594/BAC fluorescence, Average ([2]; time 28 minutes): 0.638
AF594/BAC fluorescence, Average ([2]; time 30 minutes): 0.6338
AF594/BAC fluorescence, Average ([2]; time 32 minutes): 0.6382
AF594/BAC fluorescence, Average ([2]; time 34 minutes): 0.6489
AF594/BAC fluorescence, Average ([2]; time 36 minutes): 0.6508
AF594/BAC fluorescence, Average ([2]; time 38 minutes): 0.652
AF594/BAC fluorescence, Average ([2]; time 40 minutes): 0.6508
AF594/BAC fluorescence, Average ([2]; time 42 minutes): 0.6499
AF594/BAC fluorescence, Average ([2]; time 44 minutes): 0.6458
solubility kinetic [3]: 76.4 µM (≈ 27.2 µg/mL)
inhibition at 10 µM (CYP1A2): < 1%
